Data published in patent US20250313533A1, “QUINOLINE CARBOXYLIC ACID ESTER COMPOUND AND PREPARATION METHOD AND USE THEREOF” (priority 2019, published 2025).

Columns and labels:
[1] = test system: pathogenic bacteria causing bacterial angular leaf spot in cucumbers; experiment: In vitro bactericidal activity, bacterial angular leaf spot in cucumbers; assay type: cell-based, pseudomonas; settings: read-out: inhibitory rate; for inhibition at 1 ppm: dosage 1 ppm; for inhibition at 5 ppm: dosage 5 ppm
[2] = test system: pathogenic bacteria causing bacterial wilt in tobacco; experiment: whole plant or invertebrate; assay type: cell-based, ralstonia; settings: read-out: inhibitory rate
[3] = test system: pathogenic bacteria causing black shank in potatoes; experiment: In vitro bactericidal activity, black shank in potatoes; assay type: cell-based; settings: read-out: inhibitory rate; for inhibition at 1 ppm: dosage 1 ppm; for inhibition at 5 ppm: dosage 5 ppm
[4] = test system: pathogenic bacteria causing stem rot in sweet potatoes; experiment: In vitro bactericidal activity, stem rot in sweet potatoes; assay type: cell-based, dikia; settings: read-out: inhibitory rate; for inhibition at 1 ppm: dosage 1 ppm; for inhibition at 5 ppm: dosage 5 ppm
[5] = test system: pathogenic bacteria causing bacterial blight in rice; experiment: whole plant or invertebrate; assay type: cell-based, xanthomonas; settings: read-out: inhibitory rate
[6] = test system: pathogenic bacteria causing fruit blotch in watermelons; experiment: In vitro bactericidal activity, fruit blotch in watermelons; assay type: cell-based, acidovorax; settings: read-out: inhibitory rate; for inhibition at 1 ppm: dosage 1 ppm; for inhibition at 5 ppm: dosage 5 ppm
[7] = test system: pathogenic bacteria causing black rot in Chinese cabbages; experiment: In vitro bactericidal activity, black rot in Chinese cabbages; assay type: cell-based, xanthomonas; settings: Xanthomonas, read-out: inhibitory rate; for inhibition at 1 ppm: dosage 1 ppm; for inhibition at 5 ppm: dosage 5 ppm
[8] = test system: pathogenic bacteria causing bacterial wilt in cassava; experiment: organism not typed; assay type: cell-based; settings: read-out: inhibitory rate
[9] = test system: pathogenic bacteria causing fire blight in pears; experiment: In vitro bactericidal activity, fire blight in pears; assay type: cell-based, erwinia; settings: Erwinia, read-out: inhibitory rate; for inhibition at 1 ppm: dosage 1 ppm; for inhibition at 5 ppm: dosage 5 ppm
[10] = test system: black shank in potatoes; experiment: Living crops in vivo protective activity, potatoes (root irrigation); settings: Solanum tuberosum, read-out: efficacy against black shank in potatoes; for pest or weed control at 5 ppm: dosage 5 ppm; for pest or weed control at 10 ppm: dosage 10 ppm
Experimental: Root irrigation was carried out on the potatoes for tests according to the designed concentration of the agents. The dosage for each plant was 200 mL and was kept consistent (also for the control). The black shank bacteria were inoculated on the second day after the application. The results were investigated according to the disease condition.

[11] = test system: indoor potted cucumber seedlings; experiment: Effect of improving growth and development of crops; assay type: in vivo; set-up: Rate of growth rate increase (%): concentration or dose not given beside the values; settings: versus blank control; for Rate of chlorophyll content increase (%) / Rate of leaf area increase (%): 14 days after application; for Rate of growth rate increase (%): plant height 14 days after application; for Rate of leaf area increase (%): second leaf
How it was run: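 SPAD chlorophyll, plant height and second-leaf dimensions measured at application and 14 d later; leaf area from length (base to tip) and width (upper shoulder).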

[12] = test system: cucumber seedlings; experiment: Safety for plant growth after application; assay type: in vivo; settings: dosage 200 ppm
How it was run: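 Potted cucumber seedlings grown indoors; read-outs: plant-height growth rate, chlorophyll content, leaf area.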

[13] = test system: bacterial wilt in tobacco; experiment: whole plant or invertebrate; settings: Nicotiana tabacum, read-out: efficacy against bacterial wilt in tobacco
[14] = test system: stem rot in sweet potatoes; experiment: whole plant or invertebrate; settings: read-out: efficacy against stem rot in sweet potatoes
[15] = test system: bacterial blight in rice; experiment: whole plant or invertebrate; settings: Oryza sativa, read-out: efficacy against bacterial blight in rice
[16] = test system: fruit blotch in watermelons; experiment: whole plant or invertebrate; settings: read-out: efficacy against fruit blotch in watermelons
[17] = test system: soft rot in Chinese cabbages; experiment: whole plant or invertebrate; settings: 48 h, read-out: efficacy against soft rot in Chinese cabbages

`CCOc1ccc2c(=O)c(C(=O)OCCOC)cn(C3CC3)c2c1` [Compound 342] gave an inhibition at 1 ppm [1] of no less than 90%, an inhibition at 5 ppm [1] of no less than 90% and an inhibition at 1 ppm [2] of no less than 90%. It also gave an inhibition at 5 ppm [2] of no less than 90%, an inhibition at 1 ppm [3] of no less than 90% and an inhibition at 5 ppm [3] of no less than 90%. The inhibition at 1 ppm [4] was no less than 90%, the inhibition at 5 ppm [4] was no less than 90% and the inhibition at 1 ppm [5] was no less than 90%. For the same compound, the inhibition at 5 ppm [5] was no less than 90%, the inhibition at 1 ppm [6] was no less than 90% and the inhibition at 5 ppm [6] was no less than 90%. It also gave an inhibition at 1 ppm [7] of no less than 90%, an inhibition at 5 ppm [7] of no less than 90% and an inhibition at 1 ppm [8] of no less than 90%. It also gave an inhibition at 5 ppm [8] of no less than 90%, an inhibition at 1 ppm [9] of no less than 90% and an inhibition at 5 ppm [9] of no less than 90%. The pest or weed control at 5 ppm [10] was no less than 90%, the pest or weed control at 10 ppm [10] was no less than 90% and the “Rate of chlorophyll content increase (%)” value [11] was 9%. For the same compound, the “Rate of growth rate increase (%)” value [11] was 9%, the “Rate of leaf area increase (%)” value [11] was 11% and the “safety for plant growth (discoloration, necrosis, wilt, malformation)” value (shortened to “safety for plant growth”) [12] was “safe for plant growth”. For the same compound, the pest or weed control at 5 ppm [13] was no less than 90%, the pest or weed control at 10 ppm [13] was no less than 90% and the pest or weed control at 5 ppm [14] was no less than 90%. The pest or weed control at 10 ppm [14] was no less than 90%, the pest or weed control at 5 ppm [15] was no less than 90% and the pest or weed control at 10 ppm [15] was no less than 90%. For the same compound, the pest or weed control at 5 ppm [16] was no less than 90%, the pest or weed control at 10 ppm [16] was no less than 90% and the pest or weed control at 5 ppm [17] was no less than 90%. For the same compound, the pest or weed control at 10 ppm [17] was no less than 90%.
`COCCOC(=O)c1cn(C2CC2)c2cc(OCC(F)(F)F)ccc2c1=O` [Compound 364] was tested, and the inhibition at 1 ppm [1] was no less than 80%, the inhibition at 5 ppm [1] was no less than 90% and the inhibition at 1 ppm [2] was no less than 80%. It also gave an inhibition at 5 ppm [2] of no less than 90%, an inhibition at 1 ppm [3] of no less than 80% and an inhibition at 5 ppm [3] of no less than 90%. It also gave an inhibition at 1 ppm [4] of no less than 80%, an inhibition at 5 ppm [4] of no less than 90% and an inhibition at 1 ppm [5] of no less than 80%. The inhibition at 5 ppm [5] was no less than 90%, the inhibition at 1 ppm [6] was no less than 80% and the inhibition at 5 ppm [6] was no less than 90%. It also gave an inhibition at 1 ppm [7] of no less than 80%, an inhibition at 5 ppm [7] of no less than 90% and an inhibition at 1 ppm [8] of no less than 80%. It also gave an inhibition at 5 ppm [8] of no less than 90%, an inhibition at 1 ppm [9] of no less than 80% and an inhibition at 5 ppm [9] of no less than 90%. For the same compound, the pest or weed control at 5 ppm [10] was no less than 80%, the pest or weed control at 10 ppm [10] was no less than 90% and the “Rate of chlorophyll content increase (%)” value [11] was 12%. The “Rate of growth rate increase (%)” value [11] was 7%, the “Rate of leaf area increase (%)” value [11] was 9% and the “safety for plant growth” value [12] was “safe for plant growth”. It also gave a pest or weed control at 5 ppm [13] of no less than 90%, a pest or weed control at 10 ppm [13] of no less than 90% and a pest or weed control at 5 ppm [14] of no less than 90%. It also gave a pest or weed control at 10 ppm [14] of no less than 90%, a pest or weed control at 5 ppm [15] of no less than 80% and a pest or weed control at 10 ppm [15] of no less than 90%. For the same compound, the pest or weed control at 5 ppm [16] was no less than 90%, the pest or weed control at 10 ppm [16] was no less than 90% and the pest or weed control at 5 ppm [17] was no less than 80%. It also gave a pest or weed control at 10 ppm [17] of no less than 90%.
`CCSc1cc2c(cc1F)c(=O)c(C(=O)OCCO)cn2C1CC1` [Compound 372] gave an inhibition at 1 ppm [1] of no less than 90%, an inhibition at 5 ppm [1] of no less than 90% and an inhibition at 1 ppm [2] of no less than 90%. The inhibition at 5 ppm [2] was no less than 90%, the inhibition at 1 ppm [3] was no less than 90% and the inhibition at 5 ppm [3] was no less than 90%. For the same compound, the inhibition at 1 ppm [4] was no less than 90%, the inhibition at 5 ppm [4] was no less than 90% and the inhibition at 1 ppm [5] was no less than 90%. The inhibition at 5 ppm [5] was no less than 90%, the inhibition at 1 ppm [6] was no less than 90% and the inhibition at 5 ppm [6] was no less than 90%. It also gave an inhibition at 1 ppm [7] of no less than 90%, an inhibition at 5 ppm [7] of no less than 90% and an inhibition at 1 ppm [8] of no less than 90%. The inhibition at 5 ppm [8] was no less than 90%, the inhibition at 1 ppm [9] was no less than 90% and the inhibition at 5 ppm [9] was no less than 90%. The pest or weed control at 5 ppm [10] was no less than 90%, the pest or weed control at 10 ppm [10] was no less than 90% and the “Rate of chlorophyll content increase (%)” value [11] was 11%. For the same compound, the “Rate of growth rate increase (%)” value [11] was 8%, the “Rate of leaf area increase (%)” value [11] was 10% and the “safety for plant growth” value [12] was “safe for plant growth”. For the same compound, the pest or weed control at 5 ppm [13] was no less than 90%, the pest or weed control at 10 ppm [13] was no less than 90% and the pest or weed control at 5 ppm [14] was no less than 90%. It also gave a pest or weed control at 10 ppm [14] of no less than 90%, a pest or weed control at 5 ppm [15] of no less than 90% and a pest or weed control at 10 ppm [15] of no less than 90%. It also gave a pest or weed control at 5 ppm [16] of no less than 90%, a pest or weed control at 10 ppm [16] of no less than 90% and a pest or weed control at 5 ppm [17] of no less than 90%. For the same compound, the pest or weed control at 10 ppm [17] was no less than 90%.
Compound `CCSc1cc2c(cc1F)c(=O)c(C(=O)OCCOC)cn2C1CC1` [Compound 382] has an inhibition at 1 ppm [1] of no less than 90%, an inhibition at 5 ppm [1] of no less than 90% and an inhibition at 1 ppm [2] of no less than 90%. It also gave an inhibition at 5 ppm [2] of no less than 90%, an inhibition at 1 ppm [3] of no less than 90% and an inhibition at 5 ppm [3] of no less than 90%. For the same compound, the inhibition at 1 ppm [4] was no less than 90%, the inhibition at 5 ppm [4] was no less than 90% and the inhibition at 1 ppm [5] was no less than 90%. It also gave an inhibition at 5 ppm [5] of no less than 90%, an inhibition at 1 ppm [6] of no less than 90% and an inhibition at 5 ppm [6] of no less than 90%. The inhibition at 1 ppm [7] was no less than 90%, the inhibition at 5 ppm [7] was no less than 90% and the inhibition at 1 ppm [8] was no less than 90%. The inhibition at 5 ppm [8] was no less than 90%, the inhibition at 1 ppm [9] was no less than 90% and the inhibition at 5 ppm [9] was no less than 90%. For the same compound, the pest or weed control at 5 ppm [10] was no less than 90%, the pest or weed control at 10 ppm [10] was no less than 90% and the “Rate of chlorophyll content increase (%)” value [11] was 13%. For the same compound, the “Rate of growth rate increase (%)” value [11] was 10%, the “Rate of leaf area increase (%)” value [11] was 10% and the “safety for plant growth” value [12] was “safe for plant growth”. The pest or weed control at 5 ppm [13] was no less than 90%, the pest or weed control at 10 ppm [13] was no less than 90% and the pest or weed control at 5 ppm [14] was no less than 90%. The pest or weed control at 10 ppm [14] was no less than 90%, the pest or weed control at 5 ppm [15] was no less than 90% and the pest or weed control at 10 ppm [15] was no less than 90%. It also gave a pest or weed control at 5 ppm [16] of no less than 90%, a pest or weed control at 10 ppm [16] of no less than 90% and a pest or weed control at 5 ppm [17] of no less than 90%. It also gave a pest or weed control at 10 ppm [17] of no less than 90%.
